This is an account of results in ChEMBL document CHEMBL5728071, “Optically active azabicyclo ring derivative” (2020).

This assay addresses T1, Menin (Homo sapiens, UniProt O00255).
T1 sequence (O00255 whole entry): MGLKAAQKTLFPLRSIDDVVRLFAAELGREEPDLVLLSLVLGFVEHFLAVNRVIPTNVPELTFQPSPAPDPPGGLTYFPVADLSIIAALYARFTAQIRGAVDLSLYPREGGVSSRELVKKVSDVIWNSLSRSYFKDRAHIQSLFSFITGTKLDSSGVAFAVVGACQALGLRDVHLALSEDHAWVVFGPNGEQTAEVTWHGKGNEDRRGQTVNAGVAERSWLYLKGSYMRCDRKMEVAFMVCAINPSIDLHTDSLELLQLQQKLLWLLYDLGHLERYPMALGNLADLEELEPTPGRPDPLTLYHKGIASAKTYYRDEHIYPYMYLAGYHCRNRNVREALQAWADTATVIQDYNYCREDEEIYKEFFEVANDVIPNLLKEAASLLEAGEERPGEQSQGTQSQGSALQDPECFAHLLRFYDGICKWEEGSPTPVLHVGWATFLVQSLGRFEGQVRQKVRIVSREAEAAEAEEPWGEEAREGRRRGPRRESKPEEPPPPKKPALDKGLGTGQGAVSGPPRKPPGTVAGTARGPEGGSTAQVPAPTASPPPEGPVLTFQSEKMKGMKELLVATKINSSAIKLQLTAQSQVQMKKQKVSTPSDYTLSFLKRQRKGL
Description: After the incubation, the signal was detected with RUBYstar (BMG LABTECH).

SMILES strings stand for the structures.

As for `C=C1C[C@H]2CC[C@@H]1N[C@@H]2C(=O)N1CCC2(CC1)CN(c1ncncc1Oc1ccc(F)cc1C(=O)N(C(C)C)C(C)C)C2`, half-maximal inhibition (IC50) required 7.9 nM.
Then `C=C1C[C@H]2CC[C@@H]1N[C@@H]2C(=O)N1CC2(C1)CN(c1ncncc1Oc1ccc(F)cc1C(=O)N(C(C)C)C(C)C)C2`, with 6.2 nM.

The term IC50 denotes the point on the concentration scale where inhibition reaches its midpoint.
